From ChEMBL document CHEMBL1122714, “Pyrazolo[4,3-d]pyrimidine nucleosides. Synthesis and antiviral activity of 1-beta-D-ribofuranosyl-3-methyl-6-substituted-7H-pyrazolo[4,3-d]pyr imi din-7-ones” (1984)
pEC50: −log10 of the molar value.

System: Human alphaherpesvirus 1
Test: In vitro antiviral activity by means of plaque-inhibition assay with monolayers of Vero cells infected with the MP strain of herpes simplex virus-1 (HSV-1)
Type: functional
Details: Human alphaherpesvirus 1, Vero; read-out: ED50 (the source's name)

Compound	pEC50
Cc1nn(C2O[C@H](CO)[C@@H](O)[C@H]2O)c2c(=O)n(-c3ccc(Cl)cc3)cnc12 (some centres undefined)	4.30
CCCCn1cnc2c(C)nn(C3O[C@H](CO)[C@@H](O)[C@H]3O)c2c1=O (some centres undefined)	3.82
Cc1nn(C2O[C@H](CO)[C@@H](O)[C@H]2O)c2c(=O)n(CCC(C)C)cnc12 (some centres undefined)	3.46
Cc1nn(C2O[C@H](CO)[C@@H](O)[C@H]2O)c2c(=O)n(Cc3ccccc3)cnc12 (some centres undefined)	3.61
COc1ccc(Cn2cnc3c(C)nn(C4O[C@H](CO)[C@@H](O)[C@H]4O)c3c2=O)cc1 (some centres undefined)	4.31
Cc1ccc(-n2cnc3c(C)nn(C4O[C@H](CO)[C@@H](O)[C@H]4O)c3c2=O)cc1 (some centres undefined)	3.55
Cc1nn(C2O[C@H](CO)[C@@H](O)[C@H]2O)c2c(=O)n(CCc3ccccc3)cnc12 (some centres undefined)	3.76
Cc1nn(C2O[C@H](CO)[C@@H](O)[C@H]2O)c2c(=O)n(Cc3ccc(Cl)cc3)cnc12 (some centres undefined)	3.66
O=c1[nH]c(=O)n([C@H]2C[C@H](O)[C@@H](CO)O2)cc1I [IDOXURIDINE]	5.92
